Assay in all cases: Post-emergence efficacy, glasshouse
Common to all, as to format: in vivo
Holding throughout (conditions): after 13 days, 100=total damage to plant, 0=no damage to plant

One assay deals with Setaria faberi (SETFA). As to the method: (§1) Seeds of a variety of test species were shown in standard soil in pots. After cultivation for 14 days (post-emergence) under controlled conditions in a glasshouse (at 24/16° C., day/night; 14 hours light; 65% humidity), the plants were sprayed with an aqueous spray solution derived from the dissolution of the technical active ingredient for each of compounds 1 to 26 from Table A above, in a small amount of acetone and a special solvent and emulsifier mixture referred to as IF50 (11.12% Emulsogen EL360 TM+44.44% N-methylpyrrolidone+44.44% Dowanol DPM glycol ether), to create a 50 g/I solution which was then diluted to required concentration using 0.25% or 1% Empicol ESC70 (Sodium lauryl ether sulphate)+1% ammonium sulphate in water as diluent. These spray test compositions are described as composition numbers C1 to C26, with the numerical value corresponding to the compound number from Table A.
(§2) The test plants were then grown in a glasshouse under controlled conditions (at 24/16° C., day/night; 14 hours light; 65% humidity) and watered twice daily. After 13 days the test was evaluated (100=total damage to plant; 0=no damage to plant).
(§3) Ipomoea hederacea (IPOHE), Euphorbia heterophylla (EPHHL), Chenopodium album (CHEAL), Amaranthus palmeri (AMAPA), Lolium perenne (LOLPE), Digitaria sanguinalis (DIGSA), Eleusine indica (ELEIN), Echinochloa crus-galli (ECHCG), Setaria faberi (SETFA)

A further assay relates to Lolium perenne (LOLPE). As to the method:
as §1, §2, §3

Assay [1] concerns Echinochloa crus-galli (ECHCG). As to the method: as §1, §2, §3
Assay [2] concerns Chenopodium album (CHEAL). As to the method: as §1, §2, §3
Assay [3] relates to Digitaria sanguinalis (DIGSA). As for the experimental part: as §1, §2, §3
In assay [4] the test system is Ipomoea hederacea (IPOHE). As for the experimental part:
as §1, §2, §3

For assay [5], the system named is Euphorbia heterophylla (EPHHL). As to the method: as §1, §2, §3
The test system of assay [6] is Amaranthus palmeri (AMAPA). As to the method: as §1, §2, §3
In the next assay the test system is Eleusine indica (ELEIN). As for the experimental part: as §1, §2, §3

For `COP(=O)([O-])c1c(C)[n+](C)nc2ccccc12` [Composition C9], the “Control of weed species SETFA” value in the assay with Setaria faberi (SETFA) (1000 g/Ha) is on record as 70. The “Control of weed species LOLPE” value with Lolium perenne (LOLPE) (1000 g/Ha) was found to be 50. Further, in assay [1] (1000 g/Ha), the “Control of weed species ECHCG” value came to 40. The “Control of weed species CHEAL” value in assay [2] (1000 g/Ha) was found to be 90. Further, in assay [3] (1000 g/Ha), the “Control of weed species DIGSA” value was determined as 80. Moreover, the “Control of weed species IPOHE” value in assay [4] (1000 g/Ha) is given as 90. Besides, the “Control of weed species EPHHL” value in assay [5] (1000 g/Ha) stood at 50. In addition, the “Control of weed species AMAPA” value in [6] (1000 g/Ha) was determined as 100. Further, the “Control of weed species ELEIN” value with Eleusine indica (ELEIN) (1000 g/Ha) is listed as 80.
As for `COCCOP(=O)([O-])c1c[n+](C)nc2ccccc12` [Composition C10], the “Control of weed species SETFA” value in the assay with Setaria faberi (SETFA) (1000 g/Ha) was found to be 100. In addition, the “Control of weed species LOLPE” value with Lolium perenne (LOLPE) (1000 g/Ha) is given as 20. The “Control of weed species ECHCG” value in assay [1] (1000 g/Ha) is given as 70. In assay [2] (1000 g/Ha), the “Control of weed species CHEAL” value came to 100. In addition, the “Control of weed species DIGSA” value in assay [3] (1000 g/Ha) is reported as 90. The “Control of weed species IPOHE” value in assay [4] (1000 g/Ha) is 80. Further, in assay [5] (1000 g/Ha), the “Control of weed species EPHHL” value is reported as 100. Moreover, the “Control of weed species AMAPA” value in assay [6] (1000 g/Ha) is reported as 100. Further, the “Control of weed species ELEIN” value in the assay on Eleusine indica (ELEIN) (1000 g/Ha) is on record as 100.
Take `C[n+]1cc(P(=O)([O-])Oc2ccccc2)c2ccccc2n1` [Composition C11]: the “Control of weed species SETFA” value in the assay on Setaria faberi (SETFA) (1000 g/Ha) came to 50. The “Control of weed species LOLPE” value in the assay on Lolium perenne (LOLPE) (1000 g/Ha) was 30. Further, in [1] (1000 g/Ha), the “Control of weed species ECHCG” value came out at 20. In addition, the “Control of weed species CHEAL” value in [2] (1000 g/Ha) was found to be 70. Also, the “Control of weed species DIGSA” value in assay [3] (1000 g/Ha) amounted to 70. In assay [4] (1000 g/Ha), the “Control of weed species IPOHE” value is given as 70. Moreover, the “Control of weed species EPHHL” value in [5] (1000 g/Ha) is recorded as 60. Also, the “Control of weed species AMAPA” value in [6] (1000 g/Ha) is listed as 100. Besides, the “Control of weed species ELEIN” value with Eleusine indica (ELEIN) (1000 g/Ha) is 80.
For the compound `CCCCOP(=O)([O-])c1c[n+](C)nc2ccccc12` [Composition C12], in the assay on Setaria faberi (SETFA) (500 g/Ha), the “Control of weed species SETFA” value is recorded as 70. In addition, the “Control of weed species LOLPE” value in the assay with Lolium perenne (LOLPE) (500 g/Ha) is listed as 40. Also, the “Control of weed species ECHCG” value in assay [1] (500 g/Ha) amounted to 70. Also, the “Control of weed species CHEAL” value in assay [2] (500 g/Ha) stood at 100. In addition, the “Control of weed species DIGSA” value in assay [3] (500 g/Ha) worked out at 70. Further, the “Control of weed species IPOHE” value in assay [4] (500 g/Ha) is reported as 100. In addition, in assay [5] (500 g/Ha), the “Control of weed species EPHHL” value was 100. The “Control of weed species AMAPA” value in assay [6] (500 g/Ha) amounted to 100. Besides, the “Control of weed species ELEIN” value with Eleusine indica (ELEIN) (500 g/Ha) was found to be 100.
As to `COP(=O)([O-])c1c[n+](C)nc2ccc(C)cc12` [Composition C13], the “Control of weed species SETFA” value in the assay with Setaria faberi (SETFA) (500 g/Ha) is 100. Moreover, the “Control of weed species LOLPE” value in the assay with Lolium perenne (LOLPE) (500 g/Ha) stood at 30. Moreover, in [1] (500 g/Ha), the “Control of weed species ECHCG” value is reported as 90. For the same compound, the “Control of weed species CHEAL” value in assay [2] (500 g/Ha) was found to be 100. In assay [3] (500 g/Ha), the “Control of weed species DIGSA” value was 100. Besides, in [4] (500 g/Ha), the “Control of weed species IPOHE” value came out at 70. In addition, the “Control of weed species EPHHL” value in assay [5] (500 g/Ha) turned out to be 100. In assay [6] (500 g/Ha), the “Control of weed species AMAPA” value amounted to 100. Further, in the assay with Eleusine indica (ELEIN) (500 g/Ha), the “Control of weed species ELEIN” value was determined as 100.
For `COP(=O)([O-])c1c[n+](C)nc2cc(C)ccc12` [Composition C14], the “Control of weed species SETFA” value with Setaria faberi (SETFA) (1000 g/Ha) worked out at 90. In addition, the “Control of weed species LOLPE” value with Lolium perenne (LOLPE) (1000 g/Ha) was 60. For the same compound, the “Control of weed species ECHCG” value in [1] (1000 g/Ha) is 70. In addition, the “Control of weed species CHEAL” value in assay [2] (1000 g/Ha) is given as 100. The “Control of weed species DIGSA” value in assay [3] (1000 g/Ha) is 80. Besides, in [4] (1000 g/Ha), the “Control of weed species IPOHE” value amounted to 100. Moreover, the “Control of weed species EPHHL” value in assay [5] (1000 g/Ha) stood at 100. Besides, the “Control of weed species AMAPA” value in [6] (1000 g/Ha) came to 100. The “Control of weed species ELEIN” value in the assay on Eleusine indica (ELEIN) (1000 g/Ha) is reported as 100.
Take `COP(=O)([O-])c1c[n+](C)nc2c(C)cccc12` [Composition C15]: the “Control of weed species SETFA” value in the assay on Setaria faberi (SETFA) (1000 g/Ha) is 50. Moreover, the “Control of weed species LOLPE” value in the assay on Lolium perenne (LOLPE) (1000 g/Ha) stood at 20. In assay [1] (1000 g/Ha), the “Control of weed species ECHCG” value stood at 50. The “Control of weed species CHEAL” value in [2] (1000 g/Ha) was 50. Also, the “Control of weed species DIGSA” value in assay [3] (1000 g/Ha) was determined as 70. Also, in assay [4] (1000 g/Ha), the “Control of weed species IPOHE” value stood at 20. In addition, the “Control of weed species EPHHL” value in assay [5] (1000 g/Ha) was determined as 100. For the same compound, in assay [6] (1000 g/Ha), the “Control of weed species AMAPA” value stood at 40. Moreover, the “Control of weed species ELEIN” value in the assay on Eleusine indica (ELEIN) (1000 g/Ha) was 80.
Turning to `COc1ccc2n[n+](C)cc(P(=O)([O-])OC)c2c1` [Composition C16], in the assay with Setaria faberi (SETFA) (1000 g/Ha), the “Control of weed species SETFA” value is 80. Moreover, in the assay with Lolium perenne (LOLPE) (1000 g/Ha), the “Control of weed species LOLPE” value is recorded as 50. Besides, the “Control of weed species ECHCG” value in [1] (1000 g/Ha) is 90. Further, the “Control of weed species CHEAL” value in [2] (1000 g/Ha) is reported as 90. In [3] (1000 g/Ha), the “Control of weed species DIGSA” value is 80. Moreover, in assay [4] (1000 g/Ha), the “Control of weed species IPOHE” value was found to be 70. Also, in assay [5] (1000 g/Ha), the “Control of weed species EPHHL” value is reported as 90. Also, the “Control of weed species AMAPA” value in assay [6] (1000 g/Ha) was 100. The “Control of weed species ELEIN” value in the assay with Eleusine indica (ELEIN) (1000 g/Ha) came out at 100.
